According to ChEMBL document CHEMBL1909046, “DrugMatrix in vitro pharmacology data”:

Columns and labels:
Glucocorticoid receptor = biological target: T1, Glucocorticoid receptor (Homo sapiens, UniProt P04150); conditions: hela s3; further: in other assays of this panel Not Active means under 50% inhibition at 10 µM
T1 sequence (P04150 whole entry): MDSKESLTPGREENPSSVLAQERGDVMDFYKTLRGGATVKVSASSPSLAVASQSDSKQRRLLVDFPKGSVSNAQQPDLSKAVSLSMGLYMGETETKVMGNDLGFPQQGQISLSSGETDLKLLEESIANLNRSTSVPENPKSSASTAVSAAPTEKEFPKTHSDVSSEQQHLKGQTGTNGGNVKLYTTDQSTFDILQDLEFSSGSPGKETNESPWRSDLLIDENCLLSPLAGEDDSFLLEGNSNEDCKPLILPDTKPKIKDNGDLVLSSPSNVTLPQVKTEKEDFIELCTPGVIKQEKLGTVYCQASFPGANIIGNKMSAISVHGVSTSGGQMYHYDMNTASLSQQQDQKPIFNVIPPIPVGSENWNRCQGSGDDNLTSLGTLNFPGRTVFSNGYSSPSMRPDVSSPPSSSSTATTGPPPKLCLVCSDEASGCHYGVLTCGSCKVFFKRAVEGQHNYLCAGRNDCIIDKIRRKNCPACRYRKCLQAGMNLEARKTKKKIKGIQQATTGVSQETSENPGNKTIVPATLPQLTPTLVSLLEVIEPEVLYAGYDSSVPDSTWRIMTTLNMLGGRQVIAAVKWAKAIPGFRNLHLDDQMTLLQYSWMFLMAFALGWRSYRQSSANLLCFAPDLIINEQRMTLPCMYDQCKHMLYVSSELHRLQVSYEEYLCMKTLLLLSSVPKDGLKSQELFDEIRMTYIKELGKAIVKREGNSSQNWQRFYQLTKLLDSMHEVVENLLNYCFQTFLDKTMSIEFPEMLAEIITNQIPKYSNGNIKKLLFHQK

[1] = biological target: T2, Alpha-2A adrenergic receptor (Homo sapiens, UniProt P08913); type: cell membranes, Sf9, Membrane; further: in other assays of this panel Not Active means under 50% inhibition at 10 µM
T2 sequence (P08913 whole entry): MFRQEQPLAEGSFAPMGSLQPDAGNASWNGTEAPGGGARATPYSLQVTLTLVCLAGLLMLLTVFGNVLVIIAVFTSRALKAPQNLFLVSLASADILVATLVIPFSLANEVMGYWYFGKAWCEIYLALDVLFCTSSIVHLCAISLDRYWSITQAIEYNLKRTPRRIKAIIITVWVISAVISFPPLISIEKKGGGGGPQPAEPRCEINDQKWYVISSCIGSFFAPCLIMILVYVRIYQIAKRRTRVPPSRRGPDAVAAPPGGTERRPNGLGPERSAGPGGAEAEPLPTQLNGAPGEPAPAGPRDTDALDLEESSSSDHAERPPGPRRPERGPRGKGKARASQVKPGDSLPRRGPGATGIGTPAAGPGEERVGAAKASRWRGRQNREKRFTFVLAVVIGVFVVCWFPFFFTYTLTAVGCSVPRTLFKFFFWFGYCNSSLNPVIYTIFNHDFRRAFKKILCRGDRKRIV

[2] = DRUGMATRIX: ATPase, Na+/K+ enzyme inhibition (substrate: ATP); type: tissue-based, Sus scrofa, Heart; conditions: Not Active = under 50% inhibition at 10 µM
[3] = biological target: T3, 5-hydroxytryptamine receptor 2C (Homo sapiens, UniProt P28335); assay: DRUGMATRIX: Serotonin (5-Hydroxytryptamine) 5-HT2C radioligand binding (ligand: [3H] Mesulergine); type: cell membranes, CHO-K1, Membrane; conditions: Not Active = under 50% inhibition at 10 µM
T3 sequence (P28335 whole entry): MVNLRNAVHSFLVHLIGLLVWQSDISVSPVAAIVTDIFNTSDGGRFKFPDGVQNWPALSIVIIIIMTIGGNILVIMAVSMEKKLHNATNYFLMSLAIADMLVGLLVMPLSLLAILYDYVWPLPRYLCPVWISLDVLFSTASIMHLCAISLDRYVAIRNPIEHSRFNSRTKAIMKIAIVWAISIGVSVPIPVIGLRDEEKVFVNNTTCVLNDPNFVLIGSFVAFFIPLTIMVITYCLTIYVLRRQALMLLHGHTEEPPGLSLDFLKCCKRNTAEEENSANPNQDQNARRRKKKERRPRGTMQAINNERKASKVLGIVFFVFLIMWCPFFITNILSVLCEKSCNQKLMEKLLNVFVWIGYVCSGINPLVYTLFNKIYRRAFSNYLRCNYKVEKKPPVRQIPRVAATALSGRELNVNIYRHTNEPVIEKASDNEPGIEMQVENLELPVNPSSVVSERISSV

Estrogen receptor = biological target: T4, Estrogen receptor (Homo sapiens, UniProt P03372); conditions: sf9; further: in other assays of this panel Not Active means under 50% inhibition at 10 µM
T4 sequence (P03372 whole entry): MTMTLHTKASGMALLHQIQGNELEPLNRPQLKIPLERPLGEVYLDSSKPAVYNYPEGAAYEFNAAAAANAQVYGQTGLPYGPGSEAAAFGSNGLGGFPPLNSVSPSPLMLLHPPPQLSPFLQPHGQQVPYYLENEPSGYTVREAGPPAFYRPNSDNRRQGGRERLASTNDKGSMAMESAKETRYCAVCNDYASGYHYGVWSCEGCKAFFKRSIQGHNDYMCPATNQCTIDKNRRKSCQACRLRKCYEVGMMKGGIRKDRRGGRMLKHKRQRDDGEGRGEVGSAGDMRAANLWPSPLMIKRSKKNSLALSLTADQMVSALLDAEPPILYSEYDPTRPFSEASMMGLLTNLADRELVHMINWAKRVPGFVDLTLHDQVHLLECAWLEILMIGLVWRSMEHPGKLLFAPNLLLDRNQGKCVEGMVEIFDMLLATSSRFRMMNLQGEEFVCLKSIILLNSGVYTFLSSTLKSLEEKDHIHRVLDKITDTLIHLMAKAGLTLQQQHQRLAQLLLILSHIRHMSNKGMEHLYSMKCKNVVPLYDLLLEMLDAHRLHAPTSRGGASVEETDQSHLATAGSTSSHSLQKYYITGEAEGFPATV

Histamine H2 receptor = Histamine H2 receptor (Homo sapiens, UniProt P25021); type: cell membranes, CHO-K1, Membrane; conditions: cho-k1; further: in other assays of this panel Not Active means under 50% inhibition at 10 µM
Calcitonin receptor = biological target: T5, Calcitonin receptor (Homo sapiens, UniProt P30988); type: cell membranes, Membrane; conditions: t47d; further: in other assays of this panel Not Active means under 50% inhibition at 10 µM
T5 sequence (P30988 whole entry): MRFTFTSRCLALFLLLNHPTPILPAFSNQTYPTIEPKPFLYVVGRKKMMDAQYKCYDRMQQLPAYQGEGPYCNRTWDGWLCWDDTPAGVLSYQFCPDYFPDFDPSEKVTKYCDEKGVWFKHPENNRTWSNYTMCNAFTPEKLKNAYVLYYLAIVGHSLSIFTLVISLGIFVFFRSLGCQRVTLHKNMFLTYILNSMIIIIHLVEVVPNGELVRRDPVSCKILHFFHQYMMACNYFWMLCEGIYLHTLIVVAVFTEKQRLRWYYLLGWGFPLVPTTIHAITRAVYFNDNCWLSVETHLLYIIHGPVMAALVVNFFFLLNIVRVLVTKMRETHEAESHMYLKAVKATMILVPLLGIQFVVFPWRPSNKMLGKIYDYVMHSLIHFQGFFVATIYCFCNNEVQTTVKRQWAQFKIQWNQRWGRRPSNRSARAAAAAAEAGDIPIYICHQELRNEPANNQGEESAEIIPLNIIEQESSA

Chain of Histamine H2 receptor (P25021 whole entry): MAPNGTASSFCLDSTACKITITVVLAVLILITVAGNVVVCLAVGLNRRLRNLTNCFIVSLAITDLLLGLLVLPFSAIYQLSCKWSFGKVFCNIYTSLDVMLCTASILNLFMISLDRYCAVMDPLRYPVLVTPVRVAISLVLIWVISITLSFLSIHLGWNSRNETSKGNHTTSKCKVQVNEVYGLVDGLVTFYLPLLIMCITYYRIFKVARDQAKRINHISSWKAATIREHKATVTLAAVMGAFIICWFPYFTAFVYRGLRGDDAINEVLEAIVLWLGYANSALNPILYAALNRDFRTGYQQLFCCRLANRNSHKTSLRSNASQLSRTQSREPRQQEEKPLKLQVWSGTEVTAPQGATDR

Structure (SMILES) | IC50 (Glucocorticoid receptor) | IC50 ([1]; read-out: IC50) [nM] | Ki ([1]; read-out: Ki) [nM] | IC50 [2] | Ki [2] | IC50 ([3]; cho-k1) | IC50 (Estrogen receptor) | IC50 (Histamine H2 receptor) | IC50 (Calcitonin receptor) | IC50 ([1]; sf9) | IC50 ([3]; read-out: IC50) [nM] | Ki ([3]; read-out: Ki) [nM]
c1ccc2sc(SSc3nc4ccccc4s3)nc2c1 [BENZOTHIAZYL DISULFIDE] | Not Active | 899 | 337 | Not Active | Not Active | Not Active | Not Active | Not Active | Not Active | – | – | –
O=C1c2ccccc2C(=O)C1c1ccccc1 [PHENINDIONE] | Not Active | – | – | Not Active | Not Active | Not Active | Not Active | Not Active | Not Active | Not Active | – | –
OC[C@H]1O[C@@H]2O[C@H]3[C@H](O)[C@@H](O)[C@@H](O[C@H]4[C@H](O)[C@@H](O)[C@@H](O[C@H]5[C@H](O)[C@@H](O)[C@@H](O[C@H]6[C@H](O)[C@@H](O)[C@@H](O[C@H]7[C@H](O)[C@@H](O)[C@@H](O[C@H]1[C@H](O)[C@H]2O)O[C@@H]7CO)O[C@@H]6CO)O[C@@H]5CO)O[C@@H]4CO)O[C@@H]3CO [ALFADEX] | Not Active | – | – | Not Active | Not Active | Not Active | Not Active | Not Active | Not Active | Not Active | – | –
COC(=O)C[C@](O)(CCC(C)(C)O)C(=O)O[C@@H]1C(OC)=C[C@]23CCCN2CCc2cc4c(cc2[C@H]13)OCO4 [HARRINGTONINE] | Not Active | – | – | Not Active | Not Active | Not Active | Not Active | Not Active | Not Active | Not Active | – | –
O=C1CN(/N=C/c2ccc([N+](=O)[O-])o2)C(=O)N1 [NITROFURANTOIN] | Not Active | – | – | Not Active | Not Active | Not Active | Not Active | Not Active | Not Active | Not Active | – | –
CC12CCC(CC1)C(C)(C)O2 [EUCALYPTOL] | Not Active | – | – | Not Active | Not Active | Not Active | Not Active | Not Active | Not Active | Not Active | – | –
CC(N)Cc1c[nH]c2ccc(OCc3cccs3)cc12 (stereo unspecified) [BW-723C86] | Not Active | – | – | Not Active | Not Active | – | Not Active | Not Active | Not Active | Not Active | 204 | 107
OC[C@H]1OC2C3[C@@H](CO)OC(O[C@H]4[C@H](O)[C@@H](O)[C@@H](O[C@H]5[C@H](O)[C@@H](O)[C@@H](O[C@H]6[C@H](O)[C@@H](O)[C@@H](O[C@H]7[C@H](O)[C@@H](O)[C@@H](O[C@H]8[C@H](O)[C@@H](O)[C@@H](O[C@H]9[C@H](O)[C@@H](O)C(OC1[C@H](O)[C@H]2O)O[C@@H]9CO)O[C@@H]8CO)O[C@@H]7CO)O[C@@H]6CO)O[C@@H]5CO)O[C@@H]4CO)[C@H](O)[C@H]3O | Not Active | – | – | Not Active | Not Active | Not Active | Not Active | Not Active | Not Active | Not Active | – | –
